Data on 21 compounds can be found in patent US8871767B2, “2-arylimidazo[1,2-B]pyridazine, 2-phenylimidazo[1,2-A]pyridine, and 2-phenylimidazo[1,2-A]pyrazine derivatives” (Hengrui (USA) Ltd., priority 2010, dated 2014).

Read-outs that look alike come from different tables or passages of the source.

Assay [1] concerns Hedgehog pathway activation on 10T1/2/Smo#3 cells (C3H10T1/2 cells transfected with human Smoothened receptor). Description: Hedgehog pathway activation on 10T1/2/Smo#3 cells measured by ALP activity. It counts as cell-based. Summed up:
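Inhibition of alkaline phosphatase induction, read fluorometrically from 4-methylumbelliferyl phosphate conversion, gave IC50 values; CellTiter-Blue tracked viability in parallel. Cells were the human Smo-transfected 10T1/2/Smo#3 pool, stimulated by 10-20% hShh conditioned medium or the Smo agonist SAG (500 nM).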

The test system of assay [2] is Hedgehog pathway activation (GLi-luciferase reporter) in Shh Light II reporter cells. In words: Hedgehog pathway activation on Shh Light II reporter cells measured by luciferase activity. The format is cell-based. Summed up: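 Shh Light II reporter cells carrying a hedgehog-responsive GLi-luciferase reporter were stimulated either with 500 nM SAG, a direct Smoothened agonist, or with conditioned media containing human Sonic Hedgehog (hShh). Test compounds were evaluated for blocking this pathway activation, quantified by luciferase activity. Cell viability was monitored in parallel with the Celltiter-Blue® assay.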

The mark [3] stands for this setting: Mus musculus, C3H 10T1/2, 10T1/2/Smo#3 cells, measured by ALP activity, read-out: ALP (IC50, inhibition of Hedgehog pathway activation).
[4] abbreviates: Mus musculus, Shh Light II, hShh activation, read-out: Shh (IC50, inhibition of Hedgehog pathway activation).
Where [5] appears, read: 10T1/2/Smo#3 cells, measured by ALP activity, read-out: ALP (IC50, inhibition of Hedgehog pathway activation).
[6] abbreviates: hShh activation, read-out: Shh (IC50, inhibition of Hedgehog pathway activation).
Where [7] appears, read: Mus musculus, C3H 10T1/2, 10T1/2/Smo#3 cells, hShh activation, ALP activity, read-out: 10T1/2/Smo#3 ALP activity (hShh Activation).
Setting [8] is: Mus musculus, Shh Light II, SAG activation (500 nM SAG), read-out: Shh Light II luciferase activity (SAG activation).
Where [9] appears, read: Mus musculus, Shh Light II, hShh activation, read-out: Shh Light II luciferase activity (hShh activation).

As to `CC(C)(C)C(=O)Nc1cc(-c2cn3nc(-c4c(F)cccc4F)ccc3n2)ccc1C(F)(F)F` [Example 184, N-(5-(6-(2,6-difluorophenyl)imidazo[1,2-b]pyridazin-2-yl)-2-(trifluoromethyl)phenyl)pivalamide], the IC50 came to 0.061 µM in assay [1] (setting [3]) and 0.191 µM in assay [2] (setting [4]).
For `CCOC(=O)CCCOc1cccc(-c2ccc3nc(-c4ccc(C)c(NC(=O)C(C)(C)C)c4)cn3n2)c1C(F)(F)F` [Example 426, ethyl 4-(3-(2-(4-methyl-3-pivalamidophenyl)imidazo[1,2-b]pyridazin-6-yl)-2-(trifluoromethyl)phenoxy)butanoate], the figures for the IC50 in assay [1] (setting [3]) and in assay [2] (setting [4]) were 0.707 µM and 0.17 µM, respectively.
For `Cc1ccc(-c2cn3nc(-c4cccnc4C(F)(F)F)ccc3n2)cc1NC(=O)CCCCCCC(=O)NOC1CCCCO1` (stereo not drawn) [compound 557, N1-(2-methyl-5-(6-(2-(trifluoromethyl)pyridin-3-yl)imidazo[1,2-b]pyridazin-2-yl)phenyl)-N8-((tetrahydro-2H-pyran-2-yl)oxy)octanediamide] the same measures were 1.08 µM and 0.14 µM.
With `CCOc1ccc2nc(-c3ccc(C(F)(F)F)c(NC(=O)C(C)(C)C(F)(F)F)c3)cn2n1` [Example 188, N-(5-(6-ethoxyimidazo[1,2-b]pyridazin-2-yl)-2-(trifluoromethyl)phenyl)-3,3,3-trifluoro-2,2-dimethylpropanamide], the IC50 came to 0.875 µM in assay [1] (setting [3]) and 1.4 µM in assay [2] (setting [4]).
Regarding `CCc1ccc(-c2cn3nc(-c4cccnc4C(F)(F)F)ccc3n2)cc1NC(=O)C1(C)CC1` [Example 636, N-(2-ethyl-5-(6-(2-(trifluoromethy)pyridin-3-y)imidazo[1,2-b]pyridazin-2-yl)phenyl)-1-methylcyclopropanecarboxamide], the IC50 was determined as 0.035 µM in assay [1] (setting [5]) and 0.131 µM in assay [2] (setting [6]).
Take `CCCCSc1ccc2nc(-c3ccc(C)c(NC(=O)C(C)(C)C)c3)cn2n1` [Example 124, N-(5-(6-(butylthio)imidazo[1,2-b]pyridazin-2-yl)-2-methylphenyl)pivalamide]: the IC50 was 0.3 to 3 µM in assay [1] (setting [7]); 0.604 µM in assay [1] (setting [3]); 0.3 to 3 µM in assay [2] (setting [8]); 0.895 µM in assay [2] (setting [4]); 0.3 to 3 µM in assay [2] (setting [9]).
Consider `Cc1ccc(-c2cn3nc(-c4cscn4)ccc3n2)cc1NC(=O)C(C)(C)C` [Example 445, N-(2-methyl-5-(6-(thiazol-4-yl)imidazo[1,2-b]pyridazin-2-yl)phenyl)pivalamide], for which the IC50 in assay [1] (setting [3]) worked out at 0.578 µM; in assay [2] (setting [4]), 0.794 µM.
In the case of `CC(C)(C)C(=O)Nc1cc(-c2cn3nc(-c4ccc(F)cc4F)ccc3n2)ccc1C(F)(F)F` [Example 183, N-(5-(6-(2,4-difluorophenyl)imidazo[1,2-b]pyridazin-2-yl)-2-(trifluoromethyl)phenyl)pivalamide], the IC50 in assay [1] (setting [3]) came to 0.995 µM; in assay [2] (setting [4]), 0.327 µM.
For `Cc1ccnc(-c2ccc3nc(-c4ccc(C(F)(F)F)c(NC(=O)C(C)(C)C)c4)cn3n2)c1` [Example 151, N-(5-(6-(4-methylpyridin-2-yl)imidazo[1,2-b]pyridazin-2-yl)-2-(trifluoromethyl)phenyl)pivalamide], the IC50 came to 1.81 µM in assay [1] (setting [3]) and 0.899 µM in assay [2] (setting [4]).
Take `COc1ncccc1-c1ccc2nc(-c3ccc(C(F)(F)F)c(NC(=O)C(C)(C)C)c3)cn2n1` [Example 175, N-(5-(6-(2-methoxypyridin-3-yl)imidazo[1,2-b]pyridazin-2-yl)-2-(trifluoromethyl)phenyl)pivalamide]: the figures for the IC50 in assay [1] (setting [3]) and in assay [2] (setting [4]) were 0.513 µM and 0.799 µM, respectively.
Turning to `CC(C)(C)C(=O)Nc1cc(-c2cn3nc(N4CCC5(CC4)OCCO5)ccc3n2)ccc1C(F)(F)F` [Example 371, N-(5-(6-(1,4-dioxa-8-azaspiro[4.5]decan-8-yl)imidazo[1,2-b]pyridazin-2-yl)-2-(trifluoromethyl)phenyl)pivalamide], the IC50 is 0.296 µM in assay [1] (setting [3]) and 0.138 µM in assay [2] (setting [4]).
As to `CC(C)(C(=O)Nc1cc(-c2cn3nc(-c4cccnc4C(F)(F)F)ccc3n2)ccc1Cl)C(F)(F)F` [Example 665, N-(2-chloro-5-(6-(2-(trifluoromethyl)pyridin-3-yl)imidazo[1,2-b]pyridazin-2-yl)phenyl)-3,3,3-trifluoro-2,2-dimethylpropanamide], the IC50 in assay [1] (setting [3]) was 0.12 µM; in assay [2] (setting [4]), 0.019 µM.
`COc1cccc(-c2ccc3nc(-c4ccc(C(F)(F)F)c(NC(=O)C(C)(C)C)c4)cn3n2)c1F` [Example 206, N-(5-(6-(2-fluoro-3-methoxyphenyl)imidazo[1,2-b]pyridazin-2-yl)-2-(trifluoromethyl)phenyl)pivalamide]: the IC50 in assay [1] (setting [3]) was 0.246 µM; in assay [2] (setting [4]), 0.341 µM.
In the case of `CC(C)(C)C(=O)Nc1cc(-c2cn3nc(-c4cncc5ccccc45)ccc3n2)ccc1C(F)(F)F` [Example 385, N-(5-(6-(isoquinolin-4-yl)imidazo[1,2-b]pyridazin-2-yl)-2-(trifluoromethyl)phenyl)pivalamide], the IC50 in assay [1] (setting [7]) was 0.3 to 3 µM; in assay [1] (setting [3]), 1.38 µM; in assay [2] (setting [8]) it was 0.3 to 3 µM; in assay [2] (setting [4]), 0.778 µM; in assay [2] (setting [9]) it was 0.3 to 3 µM.
For the compound `CCOc1ccc2nc(-c3ccc(C(F)(F)F)c(S(=O)(=O)NCc4ccc(F)cc4)c3)cn2n1` [Example 213, 5-(6-ethoxyimidazo[1,2-b]pyridazin-2-yl)-N-(4-fluorobenzyl)-2-(trifluoromethyl)benzenesulfonamide], the figures for the IC50 in assay [1] (setting [3]) and in assay [2] (setting [4]) were 3.86 µM and greater than 10 µM, respectively.
For `O=C(CC(F)(F)F)Nc1cc(-c2cn3nc(-c4cccnc4C(F)(F)F)ccc3n2)ccc1F` [Example 680, 3,3,3-trifluoro-N-(2-fluoro-5-(6-(2-(trifluoromethyl)pyridin-3-yl)imidazo[1,2-b]pyridazin-2-yl)phenyl)propanamide] the same measures were 3.61 µM and 0.518 µM.
In the same order, the values of `CC(C)(C)C(=O)Nc1cc(-c2cn3nc(N4CC[C@@H](O)C4)ccc3n2)ccc1Cl` [Example 643, (R)—N-(2-chloro-5-(6-(3-hydroxypyrrolidin-1-yl)imidazo[1,2-b]pyridazin-2-yl)phenyl)pivalamide] are 0.023 µM and 0.146 µM.
For `Cc1ccc(-c2cn3nc(NS(=O)(=O)c4cccc(C=CC(=O)NO)c4)ccc3n2)cc1NC(=O)C(C)(C)C` [compound 606] the same measures were 0.484 µM and 0.066 µM.
As to `COc1ccc2nc(-c3ccc(Cl)c(NC(=O)C(C)(C)C(F)(F)F)c3)cn2n1` [Example 119, N-(2-chloro-5-(6-methoxyimidazo[1,2-b]pyridazin-2-yl)phenyl)-3,3,3-trifluoro-2,2-dimethylpropanamide], the IC50 is 3 to 30 µM in assay [1] (setting [7]); 4.54 µM in assay [1] (setting [3]); 3 to 30 µM in assay [2] (setting [8]); 5.65 µM in assay [2] (setting [4]); 3 to 30 µM in assay [2] (setting [9]).
Turning to “N-(2-(2-(trifluoromethyl)pyridin-3-yl)-5-(6-(2-(trifluoromethyl)pyridin-3-yl)imidazo[1,2-b]pyridazin-2-yl)phenyl)pivalamide [Example 663]”, the IC50 in assay [1] (setting [5]) came to 3.54 µM; in assay [2] (setting [6]), 6.23 µM.
`Cc1ccc(-c2cn3nc(-c4ccc(C#N)cc4F)ccc3n2)cc1NC(=O)C(C)(C)C` [compound 545]: the IC50 in assay [1] (setting [3]) was found to be 0.443 µM; in assay [2] (setting [4]), 0.082 µM.
